{
  "source": "patent US11000033B2",
  "about": "“Ketone or oxime compound, and herbicide” (NISSAN CHEMICAL CORPORATION, priority 2014, dated 2021)",
  "format_in_all_cases": "in vivo",
  "key": {"[1]": {"test_system": "Echinochloa oryzacola Vasing.", "test": "Test Example 1: herbicidal activity, application before weed generation in submerged conditions (symbol A)", "details": "application herbicide amount 320 g/ha", "summary_of_the_method": "(§1)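 Compound emulsion was diluted to a set herbicide amount and applied to the water surface on the sowing day, into submerged (4 cm) alluvial-soil pots sown with mixed weed seeds and transplanted 2.5-leaf rice. Pots were held in a 25–30 °C greenhouse, and weeds were scored 0–5 by herbicidal ratio after 3 weeks.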"}, "Monochoria vaginalis": {"test_system": "Monochoria vaginalis", "test": "Test Example 1: herbicidal activity, application before weed generation in submerged conditions (symbol C)", "details": "application herbicide amount 320 g/ha", "summary_of_the_method": "as §1"}, "Leptochloa chinensis": {"test_system": "Leptochloa chinensis", "test": "Test Example 3: herbicidal effect by foliage application, Wagner pot (symbol D)", "details": "application herbicide amount 320 g/ha", "summary_of_the_method": "(§2)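 Alluvial soil was flooded to a depth of 0.1–0.5 cm, seeded with the weeds and rice, and kept in a greenhouse at 25–30 °C. After 14 days of growth, the foliage received a small-sprayer application of emulsion diluted to the intended rate; injury was rated at 3 weeks.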"}, "Cyperus difformis": {"test_system": "Cyperus difformis", "test": "Test Example 3: herbicidal effect by foliage application, Wagner pot (symbol E)", "details": "application herbicide amount 320 g/ha", "summary_of_the_method": "as §2"}, "Lolium multiflorum Lam.": {"test_system": "Lolium multiflorum Lam.", "test": "Test Example 4: herbicidal effect by soil treatment (symbol K)", "summary_of_the_method": "(§3)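 Seeds were sown in sterilized diluvial soil, covered with about 1.5 cm of soil, and the soil surface was sprayed with a water-diluted emulsion of the compound at a predetermined rate. Plants grew in a greenhouse at 25° C. to 30° C.; effects were scored visually 3 weeks after application.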"}, "Amaranthus retroflexus": {"test_system": "Amaranthus retroflexus", "test": "Test Example 4: herbicidal effect by soil treatment (symbol N)", "summary_of_the_method": "as §3"}, "Chenopodium album [2]": {"test_system": "Chenopodium album", "test": "Test Example 4: herbicidal effect by soil treatment (symbol O)", "summary_of_the_method": "as §3"}, "Galium spurium": {"test_system": "Galium spurium", "test": "Test Example 4: herbicidal effect by soil treatment (symbol Q)", "summary_of_the_method": "as §3"}, "rice": {"test_system": "rice", "test": "Test Example 4: effect on crop by soil treatment (symbol b)", "summary_of_the_method": "(§4)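 The test used sterilized diluvial soil. Seed was set down in spots and overlaid with about 1.5 cm of soil before growth in a greenhouse kept at 25° C. to 30° C.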"}, "wheat [3]": {"test_system": "wheat", "test": "Test Example 4: effect on crop by soil treatment (symbol e)", "summary_of_the_method": "as §4"}, "beet": {"test_system": "beet", "test": "Test Example 4: effect on crop by soil treatment (symbol f)", "summary_of_the_method": "as §4"}, "rapeseed": {"test_system": "rapeseed", "test": "Test Example 4: effect on crop by soil treatment (symbol g)", "summary_of_the_method": "as §4"}, "Avena fatua": {"test_system": "Avena fatua", "test": "Test Example 5: herbicidal effect by foliage application, plastic box (symbol I)", "details": "320 g/ha, 3 weeks after application", "summary_of_the_method": "(§5)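 Effect is rated 3 weeks after a foliar spray of water-diluted emulsion concentrate at a predetermined herbicide amount. Plants had grown 14 days in a 25° C. to 30° C. greenhouse from seed in sterilized diluvial soil.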"}, "Apera spica-venti": {"test_system": "Apera spica-venti", "test": "Test Example 5: herbicidal effect by foliage application, plastic box (symbol L)", "details": "320 g/ha, 3 weeks after application", "summary_of_the_method": "as §5"}, "Abutilon theophrasti": {"test_system": "Abutilon theophrasti", "test": "Test Example 5: herbicidal effect by foliage application, plastic box (symbol M)", "details": "320 g/ha, 3 weeks after application", "summary_of_the_method": "as §5"}, "Chenopodium album [4]": {"test_system": "Chenopodium album", "test": "Test Example 5: herbicidal effect by foliage application, plastic box (symbol O)", "details": "320 g/ha, 3 weeks after application", "summary_of_the_method": "as §5"}, "Stellaria media": {"test_system": "Stellaria media", "test": "Test Example 5: herbicidal effect by foliage application, plastic box (symbol P)", "details": "320 g/ha, 3 weeks after application", "summary_of_the_method": "as §5"}, "rice plant": {"test_system": "rice plant", "test": "Test Example 5: effect on crop by foliage application, plastic box (symbol b)", "details": "320 g/ha, 3 weeks after application", "summary_of_the_method": "(§6)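 Crop seed is sown alongside grass and broadleaf weed species in spots in sterilized diluvial soil, then covered to a depth of about 1.5 cm. Plants grow in a greenhouse kept at 25° C. to 30° C.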"}, "wheat [5]": {"test_system": "wheat", "test": "Test Example 5: effect on crop by foliage application, plastic box (symbol e)", "details": "320 g/ha, 3 weeks after application", "summary_of_the_method": "as §6"}, "[6]": {"details": "application herbicide amount 320 g/ha"}},
  "data": [
    {"molecule": "CC(CC1CC(O)=C(c2c(C)cc(C)cc2C)C1=O)=NOCC1OCCO1", "note": "(centres unmarked) [1-111]", "values": [
      {"measurement": "Herbicidal effect grade, A: Echinochloa oryzacola Vasing.", "setting": "[1]", "result": "5 (Herbicidal ratio of 90% or more (almost completely withered))"},
      {"measurement": "Herbicidal effect grade, C: Monochoria vaginalis", "setting": "Monochoria vaginalis", "result": "1 (Herbicidal ratio of 5% or higher and lower than 20%)"},
      {"measurement": "herbicidal effect on D (Leptochloa chinensis), grade 0-5", "setting": "Leptochloa chinensis", "result": "5 (Herbicidal ratio of 90% or more (almost completely withered))"},
      {"measurement": "herbicidal effect on E, grade 0-5", "setting": "Cyperus difformis", "result": "5 (Herbicidal ratio of 90% or more (almost completely withered))"},
      {"measurement": "K: Lolium multiflorum Lam., herbicidal effect grade", "setting": "Lolium multiflorum Lam.; 320 g/ha", "result": "5 (Herbicidal ratio of 90% or more (almost completely withered))"},
      {"measurement": "N: Amaranthus retroflexus, herbicidal effect grade", "setting": "Amaranthus retroflexus; 320 g/ha", "result": "0 (Herbicidal ratio of 5% or lower (almost no effect))"},
      {"measurement": "O: Chenopodium album, herbicidal effect grade", "setting": "Chenopodium album [2]; 320 g/ha", "result": "0 (Herbicidal ratio of 5% or lower (almost no effect))"},
      {"measurement": "Q: Galium spurium, herbicidal effect grade", "setting": "Galium spurium; 320 g/ha", "result": "0 (Herbicidal ratio of 5% or lower (almost no effect))"},
      {"measurement": "b: directly sowed rice plant, effect grade on crop", "setting": "rice; 320 g/ha", "result": "5 (Herbicidal ratio of 90% or more (almost completely withered))"},
      {"measurement": "e: wheat, effect grade on crop", "setting": "wheat [3]; 320 g/ha", "result": "5 (Herbicidal ratio of 90% or more (almost completely withered))"},
      {"measurement": "f: beet, effect grade on crop", "setting": "beet; 320 g/ha", "result": "0 (Herbicidal ratio of 5% or lower (almost no effect))"},
      {"measurement": "g: rapeseed, effect grade on crop", "setting": "rapeseed; 320 g/ha", "result": "4 (Herbicidal ratio of 70% or higher and lower than 90%)"},
      {"measurement": "I: Avena fatua, herbicidal effect (criteria 0-5)", "setting": "Avena fatua", "result": "5 (Herbicidal ratio of 90% or more (almost completely withered))"},
      {"measurement": "L: Apera spica-venti, herbicidal effect (criteria 0-5)", "setting": "Apera spica-venti", "result": "5 (Herbicidal ratio of 90% or more (almost completely withered))"},
      {"measurement": "M: Abutilon theophrasti, herbicidal effect (criteria 0-5)", "setting": "Abutilon theophrasti", "result": "1 (Herbicidal ratio of 5% or higher and lower than 20%)"},
      {"measurement": "O: Chenopodium album, herbicidal effect (criteria 0-5)", "setting": "Chenopodium album [4]", "result": "1 (Herbicidal ratio of 5% or higher and lower than 20%)"},
      {"measurement": "P: Stellaria media, herbicidal effect (criteria 0-5)", "setting": "Stellaria media", "result": "3 (Herbicidal ratio of 40% or higher and lower than 70%)"},
      {"measurement": "b: directly sowed rice plant, effect on crop (criteria 0-5)", "setting": "rice plant", "result": "5 (Herbicidal ratio of 90% or more (almost completely withered))"},
      {"measurement": "e: wheat, effect on crop (criteria 0-5)", "setting": "wheat [5]", "result": "5 (Herbicidal ratio of 90% or more (almost completely withered))"}
    ]},
    {"molecule": "CC(CC1CC(OC(=O)N2CCOCC2)=C(c2c(C)cc(-c3ccc(Cl)cc3)cc2C)C1=O)=NOCC(F)(F)F", "note": "(mixture of isomers) [9-025]", "values": [
      {"measurement": "A (Echinochloa oryzacola Vasing.) herbicidal effect grade", "setting": "[1]", "result": "5 (Herbicidal ratio of 90% or more (almost completely withered))"},
      {"measurement": "C (Monochoria vaginalis) herbicidal effect grade", "setting": "Monochoria vaginalis", "result": "1 (Herbicidal ratio of 5% or higher and lower than 20%)"},
      {"measurement": "D (Leptochloa chinensis) herbicidal effect grade", "setting": "Leptochloa chinensis; Table 24", "result": "5 (Herbicidal ratio of 90% or more (almost completely withered))"},
      {"measurement": "E herbicidal effect grade", "setting": "Cyperus difformis; Table 24", "result": "0 (Herbicidal ratio of 5% or lower (almost no effect))"},
      {"measurement": "Herbicidal effect grade, K: Lolium multiflorum Lam.", "setting": "Lolium multiflorum Lam.; [6]", "result": "0 (Herbicidal ratio of 5% or lower (almost no effect))"},
      {"measurement": "Herbicidal effect grade, N: Amaranthus retroflexus", "setting": "Amaranthus retroflexus; [6]", "result": "0 (Herbicidal ratio of 5% or lower (almost no effect))"},
      {"measurement": "Herbicidal effect grade, O: Chenopodium album", "setting": "Chenopodium album [2]; [6]", "result": "0 (Herbicidal ratio of 5% or lower (almost no effect))"},
      {"measurement": "Herbicidal effect grade, Q: Galium spurium", "setting": "Galium spurium; [6]", "result": "0 (Herbicidal ratio of 5% or lower (almost no effect))"},
      {"measurement": "Effect on crop grade, b: directly sowed rice plant", "setting": "rice; [6]", "result": "0 (Herbicidal ratio of 5% or lower (almost no effect))"},
      {"measurement": "Effect on crop grade, e: wheat", "setting": "wheat [3]; [6]", "result": "0 (Herbicidal ratio of 5% or lower (almost no effect))"},
      {"measurement": "Effect on crop grade, f: beet", "setting": "beet; [6]", "result": "0 (Herbicidal ratio of 5% or lower (almost no effect))"},
      {"measurement": "Effect on crop grade, g: rapeseed", "setting": "rapeseed; [6]", "result": "0 (Herbicidal ratio of 5% or lower (almost no effect))"},
      {"measurement": "I: Avena fatua, herbicidal effect grade", "setting": "Avena fatua", "result": "3 (Herbicidal ratio of 40% or higher and lower than 70%)"},
      {"measurement": "L: Apera spica-venti, herbicidal effect grade", "setting": "Apera spica-venti", "result": "0 (Herbicidal ratio of 5% or lower (almost no effect))"},
      {"measurement": "M: Abutilon theophrasti, herbicidal effect grade", "setting": "Abutilon theophrasti", "result": "0 (Herbicidal ratio of 5% or lower (almost no effect))"},
      {"measurement": "O: Chenopodium album, herbicidal effect grade", "setting": "Chenopodium album [4]", "result": "0 (Herbicidal ratio of 5% or lower (almost no effect))"},
      {"measurement": "P: Stellaria media, herbicidal effect grade", "setting": "Stellaria media", "result": "0 (Herbicidal ratio of 5% or lower (almost no effect))"},
      {"measurement": "b: directly sowed rice plant, effect on crop grade", "setting": "rice plant", "result": "0 (Herbicidal ratio of 5% or lower (almost no effect))"},
      {"measurement": "e: wheat, effect on crop grade", "setting": "wheat [5]", "result": "0 (Herbicidal ratio of 5% or lower (almost no effect))"}
    ]}
  ]
}
